# “Also recorded” adds a separate entry of the source.
# Columns and labels:
# [1] = system: T84 cells (Ins(3,4,5,6)P4 inhibition of histamine-stimulated chloride ion secretion); test: Reversal of Bt2 -Ins(3,4,5,6)P4 /AM inhibition of histamine-stimulated chloride ion secretion in T84 cells; type: cell-based, human; conditions: 400 μM antagonist + 200 μM Bt2 Ins (3,4,5,6)P4 /AM; mean ± SEM; 30 min
# [2] = system: colonic epithelial T84 cells (calcium-mediated chloride ion secretion); test: Inhibition of calcium-mediated chloride ion secretion (Table I summary); type: cell-based, human; conditions: pathway: Ins (3,4,5,6)P4
# Text: The invention provides compounds that are agonists or antagonists of inositol polyphosphates. Inositol polyphosphate derivatives can function as inositol polyphosphate agonists and antagonists. The effects of compounds of the invention on Ins(3,4,5,6)P4 - and PtdInsP3 -mediated inhibition of calcium-mediated chloride ion secretion are described in the Examples and summarized in Table I.
# (§1) Enantiomerically pure 1,2-Bt2 -Ins(3,4,5,6)P4 /AM was synthesized to determine if 1,2-Bt2 -Ins(3,4,5,6)P4 /AM mediates the uncoupling of chloride ion secretion from intracellular calcium concentrations. T84 cells (passages 18-48) were maintained as described previously (Weymer, et al., J. Clin. Invest. 76:1828 (1985)), which is incorporated herein by reference. After 7-10 days of incubation on SNAP-WELLS (Corning Costar; Cambridge, Mass.), monolayers had formed tight junctions. Cell monolayers were preincubated with 100, 200 or 400 μM Bt2 -Ins(3,4,5,6)P4 /AM for 30 min prior to mounting. After an additional 30 min, 0.1 mM histamine was added and chloride ion secretion was monitored. Chloride ion secretion was measured as short circuit current (Isc) across T84 monolayers grown to confluence and mounted in Ussing chambers equipped with voltage clamps (Physiologic Instruments; San Diego, Calif.). Data was acquired and analyzed using "Acquire and Analyze" software (Physiologic Instruments).
# [3] = system: T84 cells (histamine-stimulated chloride ion secretion); test: Histamine-stimulated chloride ion secretion (short circuit current) in T84 monolayers; type: cell-based; conditions: Homo sapiens, T84, 0.5 h; 800 μM compound alone; mean ± SEM; read-out: Peak ΔIsc (% Control) after histamine (100 μM)
# [4] = system: T84 cells (Ins(3,4,5,6)P4 inhibition of histamine-stimulated chloride ion secretion); test: Reversal of Bt2 -Ins(3,4,5,6)P4 /AM inhibition of histamine-stimulated chloride ion secretion in T84 cells; type: cell-based, human; conditions: T84 cells, histamine-stimulated
# Description: (§2) Initial studies were directed towards understanding structural determinants of Ins(3,4,5,6)P4 responsible for the inhibitory effect on calcium-mediated chloride ion secretion. A series of cell permeable inositol polyphosphate derivatives were synthesized. These derivatives contained either one or two non-hydrolyzable chemical groups on the 1, 2 or 3 position. T84 monolayers were preincubated for 30 minutes with 200 μM of 2-Bt-1-Me-Ins(3,4,5,6)P4 /AM, Me2 -Ins(3,4,5,6)P4 /AM, Me2 -Ins(1,4,5,6)P4 /AM or 2-Bt-3-Me-Ins(1,4,5,6)P4 /AM.
# (§3) Following the incubation, cells were mounted in Ussing chambers. Calcium-mediated chloride ion secretion was stimulated with histamine (10^-4 M). Control values were the response to histamine in coincubated monolayers. Data are represented as mean peak ΔIsc ±SEM, expressed as % control for 8 to 10 experiments. Significant differences were identified using the Student's two-tailed t test.
# T84 cells were preincubated with cell permeant inositol polyphosphates as described above to determine if any of the inositol polyphosphate derivatives function as antagonists of Ins(3,4,5,6)P4 inhibition of calcium-mediated chloride ion secretion. Following histamine stimulation, short circuit current was measured. […] The % control shown in FIG. 3 represents ΔIsc over peak Isc in control monolayers stimulated with histamine. However, […]
# [5] = system: T84 cells (histamine-stimulated chloride ion secretion); test: Histamine-stimulated chloride ion secretion (short circuit current) in T84 monolayers; type: cell-based, human; conditions: for effect on histamine-stimulated / calcium-mediated chloride ion secretion (in words): T84 cells
# Description: as §1, with “T84 cells (passages 18-48) were maintained as described previously (Weymer, et al., J. Clin. Invest. 76:1828 (1985)), which is incorporated herein by reference.” left out
# as §2, §3
# [6] = system: rabbit colon (calcium-mediated chloride ion secretion); test: Chloride ion secretion in rabbit colonic epithelia (Ussing chambers)
# Description: The results obtained above using T84 colonic epithelial cells in culture were confirmed using a rabbit colon model system (Frizzell et al., J. Membrane Biol. 27:297 (1976); and Frizell and Schultz, Int. Rev. Physiol. 19:205 (1979)), each of which is incorporated herein by reference. Segments of rabbit colon were excised and used as a source of rabbit colonic epithelia. Briefly, segments of rabbit colon were washed with Ringers solution containing 141 mM Na^+, 5 mM K^+, 1.2 mM Ca^2+, 1.2 mM Mg^2+, 122 mM Cl^-, 25 mM HCO3, 1.6 mM HPO4, 0.4 mM H2 PO4 and 10 mM glucose. At 37° C., this solution is pH 7.4 when gassed with 5% CO2 and 95% O2. Epithelium was stripped of the underlying muscle layer and mounted in modified SNAP WELLS (Frizzell et al., supra, 1976). Epithelia were preincubated with 200 μM 1,2-Bt2 -Ins(3,4,5,6)P4 /AM for 30 min at 37° C. and mounted in Ussing chambers. Short circuit current, conductance and resistance were measured at 4 sec intervals as described in Example I. Peak Isc was 50.9% ±10.4 of controls which were incubated with vehicle (FIG. 2; mean±SEM, n=3; p<0.05 by Student's two tailed t-test). The % control shown in FIG. 2 represents ΔIsc over peak Isc in control monolayers stimulated with histamine.
# [7] = system: T84 cells (cyclic AMP-mediated chloride ion secretion); test: Dibutyryl cyclic AMP acetoxymethyl ester stimulated chloride ion secretion in T84 cells; type: cell-based, human
# Description: as §1, with “After an additional 30 min, 0.1 mM histamine was added and chloride ion secretion was monitored.” left out
# […]; mean±SEM; n=4).
# intracellular calcium = test: Intracellular calcium concentration in treated cells; type: cell-based, human
# Description: Elevation in intracellular calcium concentration leads to increased chloride ion secretion. To ensure that none of the effects of the inositol polyphosphate derivatives on chloride ion secretion were due to changes in calcium levels, the concentration of intracellular calcium was measured in cells treated with the inositol polyphosphate derivatives. […] None of the compounds tested altered intracellular calcium levels by themselves or modified levels of intracellular calcium stimulated with carbachol or thapsigargin. Therefore, the effects of inositol polyphosphate derivatives on chloride ion secretion are not due to any effect on intracellular calcium concentrations.
# Ins(1,3,4)P3-5/6-kinase = conditions: Vajanaphanich et al. 1994; cited from earlier work
# Ins(3,4,5,6)P4 = conditions: cited from earlier work
# [8] = system: T84 cells (thapsigargin-stimulated chloride ion secretion); test: Thapsigargin-stimulated chloride ion secretion in T84 cells; type: cell-based, human; conditions: carbachol 10^-4 M, thapsigargin 1 μM; FIG. 5A
# Text: Carbachol, a muscarinic cholinergic compound, also increases intracellular calcium ion concentration and stimulates chloride ion secretion with short term treatment. However, following long-term treatment of colonic epithelial T84 cells with carbachol, increased concentrations of intracellular calcium ions no longer stimulate chloride ion secretion (Kachintorn et al., Am. J. Physiol. Cell 264:C671 (1993)), which is incorporated herein by reference. […] Thus, Ins(3,4,5,6)P4 is an endogenous negative regulator of calcium-mediated chloride ion secretion because it uncouples chloride ion secretion from calcium ion concentration.
# One set of cells was preincubated for 30 min with an inositol polyphosphate derivative. The other two sets of cells were preincubated with vehicle, alone. Measurement of Isc was initiated at time 0. At 5 min, carbachol (10^-4 M) was added to one set of cells preincubated with vehicle alone (designated "Carbachol" in FIG. 5) and to the set of cells preincubated with inositol polyphosphate derivatives (designated "Carbachol+D,L-1,2-Cyclohexylidene-Ins(3,4,5,6)P4 /AM" in FIG. 5A). At 30 min, 1 μM thapsigargin was added. Data were collected for n=4 to 6 experiments.
# inositol 1 kinase = conditions: in vitro; Tan et al.; cited from earlier work
# [9] = system: T84 cells (histamine-stimulated chloride ion secretion); conditions: equivalent to 200 μM extracellular concentration; Vajanaphanich et al.; cited from earlier work
smiles,measurement,setting,value
"CCCC(=O)O[C@@H]1[C@H](OC)[C@H](OP(=O)(OCOC(C)=O)OCOC(C)=O)[C@@H](OP(=O)(OCOC(C)=O)OCOC(C)=O)[C@H](OP(=O)(OCOC(C)=O)OCOC(C)=O)[C@H]1OP(=O)(OCOC(C)=O)OCOC(C)=O (relative stereo) [D,L-1-Bt-2-Me-Ins(3,4,5,6)P4 /AM, D,L-1-O-butyryl-2-O-methyl-myo-inositol 3,4,5,6-TKphosphate oct (acetoxymethyl) ester]",Peak ΔIsc (% Control) after histamine (100 μM),[1],96.7 ± 14.8 % Control
same,Mechanism and Inositol Polyphosphate Pathway Affected,[2],Agonist of
same,activity at 800 µM,[3],114 ± 23.7%
same,"reversal of the inhibitory effect of Bt2 -Ins(3,4,5,6)P4 /AM / Ins(3,4,5,6)P4-mediated inhibition (in words)",[4],"did not reverse the inhibition of Bt2 -Ins(1,4,5,6)P4 /AM"
same,effect on histamine-stimulated / calcium-mediated chloride ion secretion (in words),[5],did not inhibit chloride ion secretion
"CCCC(=O)O[C@@H]1[C@H](OC(=O)CCC)[C@H](OP(=O)(OCOC(C)=O)OCOC(C)=O)[C@@H](OP(=O)(OCOC(C)=O)OCOC(C)=O)[C@H](OP(=O)(OCOC(C)=O)OCOC(C)=O)[C@H]1OP(=O)(OCOC(C)=O)OCOC(C)=O [Bt2 -Ins(3,4,5,6)P4 /AM, 1,2-di-O-butyryl-myo-inositol 3,4,5,6-TKphosphate oct (acetoxymethyl) ester]",effect on chloride ion secretion in rabbit colon (in words),[6]; FIG. 2 / Example II,inhibition of chloride ion secretion; also recorded: decreases chloride ion secretion in rabbit colon
same,activity at 200 µM,"[6]; Oryctolagus cuniculus, 0.5 h, 200 μM, 30 min at 37° C., mean±SEM, n=3, p<0.05, read-out: Peak Isc, of controls",50.9%
same,Mechanism and Inositol Polyphosphate Pathway Affected,[2],Agonist of
same,inhibition of dibutyryl cyclic AMP acetoxymethyl ester stimulated chloride ion secretion (in words),[7],no inhibition
same,"peak ΔIsc, dibutyryl cyclic AMP acetoxymethyl ester stimulated chloride ion secretion","[7]; mean±SEM, n=4",96.3±9.1 % or control
same,effect on intracellular calcium (in words),intracellular calcium; alone,does not increase intracellular calcium
same,effect on calcium response to thapsigargin or carbachol (in words),intracellular calcium; thapsigargin or carbachol stimulated,does not affect calcium response to thapsigargin
same,effective intracellular concentration,"Ins(1,3,4)P3-5/6-kinase",about 4 μM
same,activity at 100 µM,"[5]; Homo sapiens, T84, 0.5 h, 100 μM compound, mean ± SEM, read-out: Peak ΔIsc (% Control) after histamine (100 μM)",75.1 ± 7.4%
same,activity at 200 µM,"[5]; Homo sapiens, T84, 0.5 h, 200 μM compound alone, mean ± SEM, read-out: Peak ΔIsc (% Control) after histamine (100 μM)",57.2 ± 15.1%
same,activity at 400 µM,"[5]; Homo sapiens, T84, 0.5 h, 400 μM compound alone, mean ± SEM, read-out: Peak ΔIsc (% Control) after histamine (100 μM)",69.3 ± 8.7%
same,effect on histamine-stimulated / calcium-mediated chloride ion secretion (in words),[5],inhibit calcium-mediated chloride secretion; also recorded: inhibited chloride ion secretion in response to increased concentrations of intracellular calcium; also recorded: decreased histamine-stimulated chloride ion secretion relative to control cells
same,concentration for maximum decrease of histamine-stimulated chloride ion secretion,"[5]; extracellular, no further decrease with 400 μM",200 µM
C[N+](C)(C)CCOC(N)=O [Carbachol],"increase in Ins(3,4,5,6)P4 levels","Ins(3,4,5,6)P4; background",≤ 20 -fold
same,"rise of intracellular Ins(3,4,5,6)P4 levels (in words)","Ins(3,4,5,6)P4; long-term treatment, Vajanaphanich et al.","slow and prolonged rise of intracellular Ins(3,4,5,6)P4 levels"
same,effect of prolonged carbachol on thapsigargin-stimulated ΔIsc (in words),[8],ΔIsc was attenuated
"O=P(O)(O)O[C@H]1[C@H](O)[C@@H](O)[C@H](OP(=O)(O)O)[C@@H](OP(=O)(O)O)[C@H]1O [Ins(1,3,4)P3]",effect on inositol 1 kinase (in words),inositol 1 kinase,inhibited inositol 1 kinase
"O=P(O)(O)O[C@H]1[C@H](OP(=O)(O)O)[C@@H](OP(=O)(O)O)[C@@H](O)[C@@H](O)[C@@H]1OP(=O)(O)O [Ins(3,4,5,6)P4, myo-inositol 3,4,5,6-tetrakisphosphate]",intracellular level corresponding to onset of maximum inhibition,[9],~4 µM
